Consider 23 compounds from patent US20220033397A1, “PHARMACEUTICAL COMPOUNDS AND THEIR USE AS INHIBITORS OF UBIQUITIN SPECIFIC PROTEASE 19 (USP19)” (ALMAC DISCOVERY LIMITED, priority 2018, published 2022).

Some results are limits rather than exact numbers.

The experiment addresses T1, Full-length USP19 (Homo sapiens, UniProt O94966).
T1 construct: Full-length USP19 was purchased from Boston Biochem (E-576); purchased Boston Biochem E-576
T1 sequence (O94966 1-1318): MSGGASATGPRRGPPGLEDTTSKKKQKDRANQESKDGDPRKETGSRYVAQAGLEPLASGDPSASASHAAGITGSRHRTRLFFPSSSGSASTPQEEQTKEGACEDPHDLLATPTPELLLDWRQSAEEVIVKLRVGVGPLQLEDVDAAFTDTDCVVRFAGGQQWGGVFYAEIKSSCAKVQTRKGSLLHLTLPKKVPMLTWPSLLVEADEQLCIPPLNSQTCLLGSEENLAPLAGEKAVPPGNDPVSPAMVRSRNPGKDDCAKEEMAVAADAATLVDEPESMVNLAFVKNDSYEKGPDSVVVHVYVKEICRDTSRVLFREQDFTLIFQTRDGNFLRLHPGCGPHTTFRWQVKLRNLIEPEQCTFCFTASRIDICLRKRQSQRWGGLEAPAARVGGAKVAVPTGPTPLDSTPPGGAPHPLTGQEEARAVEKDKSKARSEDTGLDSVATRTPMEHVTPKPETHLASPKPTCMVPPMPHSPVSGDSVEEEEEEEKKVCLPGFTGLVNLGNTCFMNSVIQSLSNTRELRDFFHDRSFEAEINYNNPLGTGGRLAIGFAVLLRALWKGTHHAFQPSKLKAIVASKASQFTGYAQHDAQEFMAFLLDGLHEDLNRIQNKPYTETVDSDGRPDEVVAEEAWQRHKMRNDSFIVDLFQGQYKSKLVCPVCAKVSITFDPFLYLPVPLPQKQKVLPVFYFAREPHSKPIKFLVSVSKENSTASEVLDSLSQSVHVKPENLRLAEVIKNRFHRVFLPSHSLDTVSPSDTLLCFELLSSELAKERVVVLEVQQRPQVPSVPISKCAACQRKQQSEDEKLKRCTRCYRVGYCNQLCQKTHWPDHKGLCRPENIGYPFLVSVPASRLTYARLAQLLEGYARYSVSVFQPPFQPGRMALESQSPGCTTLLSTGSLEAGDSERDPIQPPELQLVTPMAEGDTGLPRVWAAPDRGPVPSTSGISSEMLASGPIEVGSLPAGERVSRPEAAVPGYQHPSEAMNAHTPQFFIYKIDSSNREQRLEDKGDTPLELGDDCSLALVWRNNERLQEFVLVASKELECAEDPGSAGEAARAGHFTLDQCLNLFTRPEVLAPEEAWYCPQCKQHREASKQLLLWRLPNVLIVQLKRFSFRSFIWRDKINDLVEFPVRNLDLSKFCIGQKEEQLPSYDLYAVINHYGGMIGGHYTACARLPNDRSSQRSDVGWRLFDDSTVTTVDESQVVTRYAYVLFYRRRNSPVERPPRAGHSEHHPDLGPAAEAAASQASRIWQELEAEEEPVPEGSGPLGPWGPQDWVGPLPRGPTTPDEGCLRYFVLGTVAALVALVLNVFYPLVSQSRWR
Description: USP19 fluorescence polarisation (FP) homogeneous assay with Ubiquitin-Lys-TAMRA substrate. The class given is biochemical. Particulars: 2.5 nM USP19, 30 min pre-incubation, average of at least two duplicate experiments. A digest of the protocol:
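Full-length USP19 preincubated 30 min at RT with inhibitor (200 μM to 2 μM series, 8–18 points) before adding 500 nM Ubiquitin-Lys-TAMRA substrate.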
Background: Fluorescence polarisation rises when a labelled molecule tumbles more slowly, as on binding a larger partner.
By IC50 is commonly meant the midpoint of a concentration-inhibition curve. Turning to `O=C(N1CC[C@@](O)(Cn2cnc(-c3ccccc3F)cc2=O)C2(CCCC2)C1)N1CCNC[C@H]1c1ccccc1` [Example 314, 6-(2-Fluorophenyl)-3-(((S)-10-hydroxy-7-((R)-2-phenylpiperazine-1-carbonyl)-7-azaspiro[4.5]decan-10-yl)methyl)pyrimidin-4(3H)-one], the IC50 is < 0.5 µM.
The value for `COc1cccc(-c2cc(=O)n(C[C@]3(O)CCN(C(=O)N4CCNC[C@H]4c4ccccc4)CC34CCCC4)cn2)c1` [Example 338, 3-(((S)-10-Hydroxy-7-((R)-2-phenylpiperazine-1-carbonyl)-7-azaspiro[4.5]decan-10-yl)methyl)-6-(3-methoxyphenyl) pyrimidin-4(3H)-one] was < 0.5 µM.
Consider `O=C(N1CCC(O)(Cn2cnc3ccc(F)cc3c2=O)C2(CCCC2)C1)N1CCNC[C@H]1c1ccccc1` (stereo partly drawn) [Example 169, 6-Fluoro-3-((10-hydroxy-7-((R)-2-phenylpiperazine-1-carbonyl)-7-azaspiro[4.5]decan-10-yl)methyl)quinazolin-4(3H)-one], for which the 50% inhibitory concentration (IC50) is < 0.5 µM.
With `C[C@H](CC(F)(F)F)C(=O)N1CCC(O)(CN2CCN(c3ccccn3)CC2=O)C2(CCCC2)C1` (stereo partly drawn) [Example 113, 1-((10-Hydroxy-7-((R)-4,4,4-trifluoro-2-methylbutanoyl)-7-azaspiro[4.5]decan-10-yl)methyl)-4-(pyridin-2-yl)piperazin-2-one] the figure was < 0.5 µM.
The value for `COc1ccc(C2CNCCN2C(=O)N2CCC(O)(Cn3cnc(-c4ccccc4)cc3=O)C3(CCCC3)C2)cc1` (centres unmarked) [Example 273, 3-((10-Hydroxy-7-(2-(4-methoxyphenyl)piperazine-1-carbonyl)-7-azaspiro[4.5]decan-10-yl)methyl)-6-phenylpyrimidin-4(3H)-one] was 5 to 50 µM; that for `C[C@H](CC1CCCCC1)C(=O)N1CCC(O)(Cn2cc(-c3ccn[nH]3)ncc2=O)C(C)(C)C1` (stereo partly drawn) [Example 17, 1-((1-((R)-3-Cyclohexyl-2-methylpropanoyl)-4-hydroxy-3,3-dimethylpiperidin-4-yl)methyl)-5-(1H-pyrazol-5-yl)pyrazin-2(1H)-one] was 0.5 to 5 µM; that for `COc1ccc2c(=O)n(CC3(O)CCN(C(=O)[C@H](C)CC4CCCCC4)CC34CCCC4)cnc2c1` (stereo partly drawn) [Example 139, 3-((7-((R)-3-Cyclohexyl-2-methylpropanoyl)-10-hydroxy-7-azaspiro[4.5]decan-10-yl)methyl)-7-methoxyquinazolin-4(3H)-one] was 0.5 to 5 µM.
As to `Cn1nccc1-c1cc(=O)n(CC2(O)CCN(C(=O)NCc3ccccc3)CC23CCCC3)cn1` (centres unmarked) [Example 205, N-Benzyl-10-hydroxy-10-((4-(1-methyl-1H-pyrazol-5-yl)-6-oxopyrimidin-1(6H)-yl)methyl)-7-azaspiro[4.5]decane-7-carboxamide], the IC50 was 0.5 to 5 µM.
The value for `O=C(N1CCC(O)(Cn2cnc(-c3ccccc3)cc2=O)C2(CCCC2)C1)N1CCNCC1C1CC1` (centres unmarked) [Example 275, 3-((7-(2-Cyclopropylpiperazine-1-carbonyl)-10-hydroxy-7-azaspiro[4.5]decan-10-yl)methyl)-6-phenylpyrimidin-4(3H)-one] was 5 to 50 µM; that for `COc1ncc2c(=O)n(CC3(O)CCN(C(=O)[C@H](C)CC(F)(F)F)CC34CCCC4)ccc2n1` (stereo partly drawn) [Example 59, 6-((10-Hydroxy-7-((R)-4,4,4-trifluoro-2-methylbutanoyl)-7-azaspiro[4.5]decan-10-yl)methyl)-2-methoxypyrido[4,3-d]pyrimidin-5(6H)-one] was 5 to 50 µM.
As for `C[C@H](CC1CCCCC1)C(=O)N1CCC(O)(Cn2cc(Br)ncc2=O)C2(CCCC2)C1` (stereo partly drawn) [Example 7, 5-Bromo-1-((7-((R)-3-cyclohexyl-2-methylpropanoyl)-10-hydroxy-7-azaspiro[4.5]decan-10-yl)methyl)pyrazin-2(1H)-one], the IC50 is < 0.5 µM.
The value for `O=C(N1CC[C@@](O)(Cn2cnc(-c3ccccc3F)cc2=O)C2(CCCC2)C1)N1CCNC[C@H]1c1cc(F)cc(F)c1` [Example 392, 3-(((S)-7-((R)-2-(3,5-Difluoro-phenyl)piper-azine-1-carbonyl)-10-hydroxy-7-azaspiro[4.5]decan-10-yl)methyl)-6-(2-fluorophenyl)pyrimi-din-4(3H)-one] was < 0.5 µM; that for `C[C@H](CC1CCCCC1)C(=O)N1CCC(O)(Cn2ccc3sccc3c2=O)C2(CCCC2)C1` (stereo partly drawn) [Example 142, 5-((7-((R)-3-Cyclohexyl-2-methylpropanoyl)-10-hydroxy-7-azaspiro[4.5]decan-10-yl)methyl)thieno[3,2-c]pyridin-4(5H)-one] was 5 to 50 µM.
Consider `C[C@H](CC1CCCCC1)C(=O)N1CCC(O)(Cn2cc(-c3ccccc3)ncc2=O)C(C)(C)C1` (stereo partly drawn) [Example 2, 1-((1-((R)-3-Cyclohexyl-2-methylpropanoyl)-4-hydroxy-3,3-dimethylpiperidin-4-yl)methyl)-5-phenylpyrazin-2(1H)-one], for which the IC50 is 0.5 to 5 µM.
With `COc1cccc(F)c1-c1cc(=O)n(C[C@]2(O)CCN(C(=O)N3CCNC[C@H]3c3ccccc3)CC23CCCC3)cn1` [Example 381, 6-(2-Fluoro-6-meth-oxyphenyl)-3-(((S)-10-hydroxy-7-((R)-2-phenylpiperazine-1-carbonyl)-7-aza-spiro[4.5]decan-10-yl)methyl)pyrimidin-4(3H)-one] the figure was < 0.5 µM; with `C[C@H](CC1CCCCC1)C(=O)N1CCC(O)(Cn2cnc3cc(F)c(F)cc3c2=O)C2(CCCC2)C1` (stereo partly drawn) [Example 151, 3-((7-((R)-3-Cyclohexyl-2-methylpropanoyl)-10-hydroxy-7-azaspiro[4.5]decan-10-yl)methyl)-6,7-difluoroquinazolin-4(3H)-one], < 0.5 µM.
With `CS(C)(=O)=Nc1cn(CC2(O)CCN(C(=O)N3CCNC[C@H]3c3ccccc3)CC23CCCC3)c(=O)cc1-c1ccccc1` (stereo partly drawn) [Example 191, 5-((Dimethyl(oxo)-λ^6-sulfaneylidene)amino)-1-((10-hydroxy-7-((R)-2-phenylpiperazine-1-carbonyl)-7-azaspiro[4.5]decan-10-yl)methyl)-4-phenylpyridin-2(1H)-one] the figure was < 0.5 µM; with `C[C@H](CC1CCCCC1)C(=O)N1CCC(O)(Cn2cnc3ccsc3c2=O)C2(CCCC2)C1` (stereo partly drawn) [Example 144, 3-((7-((R)-3-Cyclohexyl-2-methylpropanoyl)-10-hydroxy-7-azaspiro[4.5]decan-10-yl)methyl)thieno[3,2-d]pyrimidin-4(3H)-one], 0.5 to 5 µM; with `C[C@H](CC1CCCCC1)C(=O)N1CCC(O)(Cn2ccc3ccncc3c2=O)C2(CCCC2)C1` (stereo partly drawn) [Example 137, 2-((7-((R)-3-Cyclohexyl-2-methylpropanoyl)-10-hydroxy-7-azaspiro[4.5]decan-10-yl)methyl)-2,7-naphthyridin-1(2H)-one], < 0.5 µM.
With `C[C@H](CC1CCCCC1)C(=O)N1CCC(O)(Cn2cc(-c3ccncc3)ncc2=O)C(C)(C)C1` (stereo partly drawn) [Example 14, 1-((1-((R)-3-Cyclohexyl-2-methylpropanoyl)-4-hydroxy-3,3-dimethylpiperidin-4-yl)methyl)-5-(pyridin-4-yl)pyrazin-2(1H)-one], the IC50 fell in the range of 0.5 to 5 µM.
With `CCCn1c(=O)n(CC2(O)CCN(C(=O)[C@H](C)CC3CCCCC3)CC23CCCC3)c2ccccc21` (stereo partly drawn) [Example 33, 1-((7-((R)-3-Cyclohexyl-2-methylpropanoyl)-10-hydroxy-7-azaspiro[4.5]decan-10-yl)methyl)-3-propyl-1,3-dihydro-2H-benzo[d]imidazol-2-one] the figure was 5 to 50 µM.
With `O=C(NCc1ccccc1)N1CCC(O)(Cn2cnc(-c3ccccc3F)cc2=O)C2(CC2)C1` (centres unmarked) [Example 194, N-Benzyl-8-((4-(2-fluorophenyl)-6-oxopyrimidin-1(6H)-yl)methyl)-8-hydroxy-5-azaspiro[2.5]octane-5-carboxamide] the figure was 50 to 250 µM; with `O=C1CN(C(=O)c2ccccc2)CCN1CC1(O)CCN(C(=O)NCc2ccccc2)CC12CCCC2` (centres unmarked) [Example 107, 10-((4-Benzoyl-2-oxopiperazin-1-yl)methyl)-N-benzyl-10-hydroxy-7-azaspiro[4.5]decane-7-carboxamide], 5 to 50 µM.
